Laboratory results from patent publication US9102648B1, “Bioavailable diacylhydrazine ligands for modulating the expression of exogenous genes via an ecdysone receptor complex” (Intrexon Corporation, priority 2003, dated 2015).
Where two headings read alike, the source gives them in different places.

Molecular target: T1, Bombyx mori EcR (VP16 fusion, CVBE switch construct) (Bombyx mori, UniProt P49881)
T1 sequence (P49881 86-606): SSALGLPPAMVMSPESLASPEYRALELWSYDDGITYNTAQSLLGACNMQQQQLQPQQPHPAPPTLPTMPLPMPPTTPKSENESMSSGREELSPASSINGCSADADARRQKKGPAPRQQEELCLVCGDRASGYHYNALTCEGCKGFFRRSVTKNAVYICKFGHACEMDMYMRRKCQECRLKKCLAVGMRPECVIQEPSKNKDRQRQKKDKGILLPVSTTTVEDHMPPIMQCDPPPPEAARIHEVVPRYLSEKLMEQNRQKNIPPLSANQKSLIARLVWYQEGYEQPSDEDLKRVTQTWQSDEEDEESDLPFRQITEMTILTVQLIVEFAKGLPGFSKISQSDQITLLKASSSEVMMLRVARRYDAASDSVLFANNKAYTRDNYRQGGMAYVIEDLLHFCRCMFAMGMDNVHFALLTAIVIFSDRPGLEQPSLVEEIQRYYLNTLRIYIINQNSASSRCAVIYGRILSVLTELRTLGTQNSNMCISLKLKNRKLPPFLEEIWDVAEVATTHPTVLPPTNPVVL
T1 sequence (P19793 1-462 partner): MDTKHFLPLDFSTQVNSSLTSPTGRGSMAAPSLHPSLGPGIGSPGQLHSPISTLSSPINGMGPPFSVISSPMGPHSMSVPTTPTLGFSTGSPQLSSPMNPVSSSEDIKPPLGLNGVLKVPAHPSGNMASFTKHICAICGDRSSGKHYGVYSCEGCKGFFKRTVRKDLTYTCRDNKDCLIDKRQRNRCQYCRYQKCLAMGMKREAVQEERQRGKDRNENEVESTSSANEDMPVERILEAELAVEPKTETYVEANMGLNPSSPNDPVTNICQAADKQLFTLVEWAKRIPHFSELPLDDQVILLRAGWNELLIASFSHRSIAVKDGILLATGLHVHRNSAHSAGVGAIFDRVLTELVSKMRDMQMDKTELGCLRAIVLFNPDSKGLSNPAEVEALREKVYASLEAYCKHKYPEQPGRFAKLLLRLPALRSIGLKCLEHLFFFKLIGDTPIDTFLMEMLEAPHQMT
Experiment: Z3 Assay (HEK-293 cells with CVBE and 6XEcRE LacZ, β-galactosidase reporter)
Details: for Fold Induction, Z3 Assay, 33 uM: 33 uM ligand; for Fold Induction, Z3 Assay, 33 uM / Fold Induction, Z3 Assay, 3.3 uM: ligand treated / DMSO treated cells; for Fold Induction, Z3 Assay, 3.3 uM: 3.3 uM ligand; for Z3 assay Rel Max FI: maximum fold induction at any concentration relative to that of GS-E ligand; for fold induction at 3.3 µM: HEK293, read-out: Fold Induction, Z3 Assay, 3.3 uM; for fold induction at 33 µM: HEK293, read-out: Fold Induction, Z3 Assay, 33 uM

[1] = read-out: Z3 assay EC50, HEK-293 Z3 cells, β-galactosidase reporter, average of two wells

Structure (SMILES)	Fold Induction, Z3 Assay, 33 uM (average of two wells)	Fold Induction, Z3 Assay, 3.3 uM (average of two wells)	Z3 assay Rel Max FI (HEK-293 Z3 cells)	EC50 [1] [nM]	EC50 [nM]	fold induction at 3.3 µM	fold induction at 33 µM
CCc1c(C(=O)NN(C(=O)c2ccc(F)c(C(F)(F)F)c2)C(C)(C)C)ccc2c1OCCO2 [RG-115280]	376	–	–	–	–	–	–
CCCC(N(NC(=O)c1cccc(OC)c1C)C(=O)c1cc(C)cc(C)c1)C(C)(C)C (stereo not drawn) [RG-115823]	1050	1440	0.933	20	–	–	–
CCc1c(C(=O)NN(C(=O)c2ccccc2OC)C(C)(C)C)ccc2c1OCOC2 [RG-115065]	878	–	–	1480	–	–	–
CCc1c(OC)cccc1C(=O)NN(C(=O)c1cc(C)cc(C)c1)C(C)(C)CO [RG-115143]	1045	111	0.844	7410	–	–	–
COc1ccc(C)cc1C(=O)N(NC(=O)c1cccc(OC)c1C)C(C)(C)C [RG-100766]	474	921	1.194	174	–	–	–
Cc1c(C(=O)NN(C(=O)c2ccc(F)cc2)C(C)(C)C)ccc2c1OCO2 [RG-100448]	423	–	–	2820	–	–	–
CCOC(=O)C(C)(C)N(NC(=O)c1cccc(OC)c1CC)C(=O)c1cc(C)cc(C)c1 [RG-115025, 2-[N-(3,5-dimethyl-benzoyl)-N′-(2-ethyl-3-methoxy-benzoyl)-hydrazino]-2-methyl-propionic acid ethyl ester]	–	–	0.385	–	347	269	489
CCc1c(OC)cccc1C(=O)NN(C(=O)c1cc(C)cc(C)c1)C(CC)C(C)(C)C (stereo not drawn) [RG-115832]	621	1564	1.002	37	–	–	–
CCc1c(C(=O)NN(C(=O)c2ccccc2OC)C(C)(C)C)ccc2c1OCCO2 [RG-115244]	816	283	0.959	85	–	–	–
COc1ccc(C(=O)N(NC(=O)c2ccc3c(c2C)OCCO3)C(C)(C)C)c(OC)n1 [RG-115517, 2,6-dimethoxy-nicotinic acid N-tert-butyl-N′-(5-methyl-2,3-dihydro-benzo[1,4]dioxine-6-carbonyl)-hydrazide]	–	–	0.923	–	89	408	–
Cc1c(C(=O)NN(C(=O)c2cc(F)c(F)c(F)c2F)C(C)(C)C)ccc2c1CCCO2 [RG-115518]	803	232	0.834	257	–	–	–
CCc1c(C(=O)NN(C(=O)c2cc(C)cc(Cl)c2)C(C)(C)C)ccc2c1OCCO2 [RG-101494, N-(5-ethyl-1,4-benzodioxan-6-carbonyl)-N′-(tert-butyl)-N′-(3-chloro-5-methylbenzoyl)hydrazine]	–	–	1.093	–	79	832	384
CCc1c(OC)cccc1C(=O)NN(C(=O)c1cc(C)cc(COC(C)=O)c1)C(C)(C)C [RG-115223]	1299	323	0.925	1900	–	–	–
CCc1c(OC)cccc1C(=O)NN(C(=O)c1ccc(Cl)cc1[N+](=O)[O-])C(C)(C)C [RG-115647]	510	96	0.923	145	–	–	–
CCc1c(C(=O)NN(C(=O)c2ccc(F)c(F)c2F)C(C)(C)C)ccc2c1OCCO2 [RG-115580]	615	–	–	182	–	–	–
CCc1c(OC)cccc1C(=O)NN(C(=O)c1cc(C)cc(C)c1)C(C)(C)C=NCCO [RG-115511]	570	10	0.66	39000	–	–	–
COc1cccc(C(=O)NN(C(=O)c2cc(C)cc(C)c2)C(C)(C)C)c1N [RG-115378]	1464	488	0.947	324	–	–	–

Structure (SMILES)	Fold Induction, Z3 Assay, 33 uM (average of two wells)	Fold Induction, Z3 Assay, 3.3 uM (average of two wells)	Z3 assay Rel Max FI (HEK-293 Z3 cells)	EC50 [1] [nM]	EC50 [nM]	fold induction at 3.3 µM	fold induction at 33 µM
CCc1c(OC)cccc1C(=O)NN(C(=O)c1cc(C)cc(C)c1)C(C)(C)C(=O)O [RG-115044, 2-[N-(3,5-Dimethyl-benzoyl)-N′-(2-ethyl-3-methoxy-benzoyl)-hydrazino]-2-methyl-propionic acid]	–	–	1.08	–	> 50000	1	7
CCC(N(NC(=O)c1cccc(C)c1C)C(=O)c1cc(C)cc(C)c1)C(C)(C)C (stereo not drawn) [RG-103309, 3,5-dimethyl-benzoic acid N′-(2,3-dimethyl-benzoyl)-N-(1-ethyl-2,2-dimethyl-propyl)-hydrazide]	–	–	0.950	–	78	1160	591
COc1cc(C)cc(C(=O)N(NC(=O)c2cccc(OC)c2C)C(C)(C)C)c1 [RG-100767]	371	825	0.996	251	–	–	–
CCc1c(OC)cccc1C(=O)NN(C(=O)c1cc(C)cc(C=NNC(=O)C(N)=O)c1)C(C)(C)C [RG-115613, oxamic hydrazone of N-(3-formyl-5-methyl-benzoyl)-N-tert-butyl-N′-(2-ethyl-3-methoxy-benzoyl) hydrazide]	1469	991	0.964	589	–	–	–
CCc1c(OC)cccc1C(=O)NN(C(=O)c1cc(C)cc(C)c1)C(C)(C)C [RG-102240, N-(3-methoxy-2-ethylbenzoyl)-N′-(3,5-dimethylbenzoyl)-N′-tert-butylhydrazine]	–	–	1	–	286	–	–
CCc1ccc(C(=O)NN(C(=O)c2cc(C)cc(C)c2)C(C)(C)C)cc1 [RG-102125]	–	–	–	–	174	–	–
COc1cccc(C(=O)NN(C(=O)c2cc(Cl)c(F)c(Cl)c2)C(C)(C)C)c1C [RG-101382, N-(3-methoxy-2-methylbenzoyl)-N′-(3,5-dichloro-4-fluorobenzoyl)-N′-tert-butylhydrazine]	–	–	0.951	–	66	725	426
Cc1c(C(=O)NN(C(=O)c2cc(F)c(Cl)cc2Cl)C(C)(C)C)ccc2c1CCCO2 [RG-115539]	339	–	–	151	–	–	–
Cc1ccc([N+](=O)[O-])c(C(=O)N(NC(=O)c2ccc3c(c2C)CCCO3)C(C)(C)C)c1 [RG-115664]	620	209	0.846	126	–	–	–
CCc1c(C(=O)NN(C(=O)c2ccccc2OC)C(C)(C)C)ccc2c1OCCO2 [RG-100690]	475	779	1.008	240	–	–	–
COc1cccc(C(=O)N(NC(=O)c2ccc3c(c2C)OCCO3)C(C)(C)C)c1 [RG-100360]	891	870	1.073	257	–	–	–
Cc1c(C(=O)NN(C(=O)c2ccc(F)cc2)C(C)(C)C)ccc2c1CCCO2 [RG-115118]	1160	90	0.969	234	–	–	–
Cc1c(C(=O)NN(C(=O)c2cccc(F)c2)C(C)(C)C)ccc2c1CCCO2 [RG-115278]	1225	158	0.893	257	–	–	–
COc1cccc(C(=O)NN(C(=O)c2cc(C)cc(C)c2)C(C)(C)C)c1[N+](=O)[O-] [RG-100568]	1193	276	0.855	3310	–	–	–
CCc1c(OC)cccc1C(=O)NN(C(=O)c1ccc2c(c1)OCO2)C(C)(C)C [RG-100699]	415	–	–	2090	–	–	–
CCc1c(C(=O)NN(C(=O)c2cc(Cl)nc(Cl)c2)C(C)(C)C)ccc2c1OCCO2 [RG-115297]	604	443	0.872	66	–	–	–
Cc1c(C(=O)NN(C(=O)c2ccc(F)c(F)c2)C(C)(C)C)ccc2c1CCCO2 [RG-115416]	1116	164	1.869	91	–	–	–
